Data published in patent US20150093398A1, “Methods and Compositions for Treating or Preventing Cancer” (MERCK SHARP & DOHME CORP., priority 2005, published 2015).

Legend:
[1] = test system: SK-N-MC neuroblastoma cells; assay: SK-N-MC neuroblastoma xenograft tumor growth in mice (04 IGFR-13, 19D12 vs. Cisplatin); assay type: in vivo, Athymic nude mice; conditions: Cisplatin 2 mpk
[2] = test system: Hs700T malignant pancreatic cells; assay: Hs700T pancreatic xenograft tumor growth in mice (04 IGFR-16, 19D12 and Gemzar combination);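 note: subcutaneous flank xenografts in athymic nude mice, treated once tumors averaged 100 mm^3, antibody given intraperitoneally twice weekly, tumor size measured by calipers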
Experimental: (§1) Athymic nude mice were inoculated with tumor cells in the right flank, subcutaneously, along with Matrigel (1:1 cells:gel). In these experiments, 5×10^6 cells/mouse in a 1:1 mix with regular matrigel were inoculated subcutaneously. Tumor size was measured with calipers and the data was entered into the labcat program. Mice were grouped with average size of 100 mm^3. Tumor size and body weight were measured twice weekly.
(§2) In these experiments, mice were dosed twice per week, intraperitoneally (i.p.) with antibody 19D12 and chemotherapeutic agents at the indicated frequency. Tumor size and mouse body weight was measured twice weekly after treatment.

[3] = test system: SK-N-AS neuroblatoma cells; assay: SK-N-AS neuroblastoma xenograft tumor growth in mice (03 IGFR-09, 19D12 vs. Cytoxan); assay type: in vivo, Athymic nude mice; conditions: 100 mpk Cytoxan
Experimental: as §1, §2

[4] = test system: SJCRH30 rhabdomyosarcoma cells; assay: SJCRH30 rhabdomyosarcoma xenograft tumor growth in mice (05 IGFR-01, 19D12 and Cytoxan); assay type: in vivo, Athymic nude mice; conditions: 100 mpk Cytoxan
Experimental: as §1, §2

[5] = test system: SJSA-1 osteosarcoma cells; assay: SJSA-1 osteosarcoma xenograft model (05-IGFR-12), dosing from day 18 post inoculation; assay type: in vivo, female nude mouse (strain NU/NU); conditions: 100 mpk Cytoxan
Experimental: About 7 million SJSA-1 osteosarcoma cells were inoculated subcutaneously to the flank of each female nude mouse (strain NU/NU from Charles River, age ˜6 wks-old, average weight ˜20 gram). For the experiment set forth in Table 8, dosing was initiated on day 18 post inoculation, when the xenograft tumor reached an average size of about 100 mm^3. Anti-IGF1R antibody (19D12 Light chain F/Heavy chain A (as set forth above)) was given ip twice a week at the dose of either 0.02 mg, 0.1 and 0.5 mg per mouse, while cytotoxic Cytoxan (cyclophosphamide) was given ip twice per week at the dose of 100 mpk for a total of 3 injection during the course of the study. Xenograft tumor size was measured twice per week with a caliper and captured electronically by the LabCat program.

[6] = test system: SJSA-1 osteosarcoma cells; assay: SJSA-1 osteosarcoma xenograft model (05-IGFR-21), dosing from 15 days after inoculation; assay type: in vivo, female nude mouse (strain NU/NU)
Experimental: Xenograft tumor size was measured twice per week with a caliper and captured electronically by the LabCat program. […] For the experiments set forth in Table 9, dosing was initiated 15 days after inoculation. […] Xenograft tumor size was measured twice per week with a caliper and captured electronically by the LabCat program.

Question: For N.N.[Cl][Pt][Cl] [Cisplatin, cisplatin, reference compound], which “Tumor Average Size” value ([1]; Day 0) is on record?
Answer: 99 mm^3

Question: And the “Tumor Average Size” value ([1]; Day 2)?
Answer: 131 mm^3

Question: And the “Tumor Average Size” value ([1]; Day 6)?
Answer: 174 mm^3

Question: What about the “Tumor Average Size” value ([1]; Day 9) of the same compound?
Answer: 212 mm^3

Question: What about the “Tumor Average Size” value ([1]; Day 13) of the same compound?
Answer: 264 mm^3

Question: What about the “Tumor Average Size” value ([1]; Day 16) of the same compound?
Answer: 288 mm^3

Question: And the “Tumor Average Size” value ([1]; Day 20)?
Answer: 299 mm^3

Question: What about the “Tumor Average Size” value ([1]; Day 23) of the same compound?
Answer: 352 mm^3

Question: And the “Tumor Average Size” value ([1]; Day 24)?
Answer: 352 mm^3

Question: What about the “Tumor Average Size” value ([2]; 5 mpk Cisplatin, Day 0) of the same compound?
Answer: 79 mm^3

Question: And the “Tumor Average Size” value ([2]; 5 mpk Cisplatin, Day 4)?
Answer: 87 mm^3

Question: What about the “Tumor Average Size” value ([2]; 5 mpk Cisplatin, Day 7) of the same compound?
Answer: 96 mm^3

Question: What about the “Tumor Average Size” value ([2]; 5 mpk Cisplatin, Day 11) of the same compound?
Answer: 99 mm^3

Question: And the “Tumor Average Size” value ([2]; 5 mpk Cisplatin, Day 14)?
Answer: 100 mm^3

Question: What about the “Tumor Average Size” value ([2]; 5 mpk Cisplatin, Day 18) of the same compound?
Answer: 107 mm^3

Question: And the “Tumor Average Size” value ([2]; 5 mpk Cisplatin, Day 21)?
Answer: 113 mm^3

Question: And the “Tumor Average Size” value ([2]; 5 mpk Cisplatin, Day 26)?
Answer: 155 mm^3

Question: And the “Tumor Average Size” value ([2]; 5 mpk Cisplatin, Day 29)?
Answer: 175 mm^3

Question: And the “Tumor Average Size” value ([2]; 5 mpk Cisplatin, Day 33)?
Answer: 185 mm^3

Question: What about the “Tumor Average Size” value ([2]; 5 mpk Cisplatin, Day 36) of the same compound?
Answer: 173 mm^3

Question: How did the “Tumor Average Size” value ([3]; Day 4) turn out when O=P1(N(CCCl)CCCl)NCCCO1 (stereo not drawn) [Cytoxan, cyclophosphamide, reference compound] was run?
Answer: 257 mm^3

Question: And the “Tumor Average Size” value ([3]; Day 7)?
Answer: 227 mm^3

Question: And the “Tumor Average Size” value ([3]; Day 11)?
Answer: 111 mm^3

Question: And the “Tumor Average Size” value ([3]; Day -1)?
Answer: 122 mm^3

Question: And the “Tumor Average Size” value ([4]; Day 0)?
Answer: 75 mm^3

Question: And the “Tumor Average Size” value ([4]; Day 4)?
Answer: 125 mm^3

Question: What about the “Tumor Average Size” value ([4]; Day 7) of the same compound?
Answer: 232 mm^3

Question: And the “Tumor Average Size” value ([4]; Day 11)?
Answer: 347 mm^3

Question: And the “Tumor Average Size” value ([4]; Day 14)?
Answer: 591 mm^3

Question: And the “Tumor Average Size” value ([4]; Day 18)?
Answer: 733 mm^3

Question: And the “Mean Tumor size” value ([5]; Day 0)?
Answer: 96 mm3

Question: What about the “Mean Tumor size” value ([5]; Day 3) of the same compound?
Answer: 111 mm3

Question: What about the “Mean Tumor size” value ([5]; Day 7) of the same compound?
Answer: 102 mm3

Question: What about the “Mean Tumor size” value ([5]; Day 10) of the same compound?
Answer: 59 mm3

Question: And the “Mean Tumor size” value ([5]; Day 14)?
Answer: 140 mm3

Question: And the “Mean Tumor size” value ([5]; Day 17)?
Answer: 172 mm3

Question: What about the “Mean Tumor size” value ([5]; Day 21) of the same compound?
Answer: 302 mm3

Question: And the “Mean Tumor size” value ([5]; Day 24)?
Answer: 586 mm3

Question: And the “Mean Tumor size” value ([5]; Day 28)?
Answer: 972 mm3

Question: What about the “Mean Tumor size” value ([6]; 50 mpk Cytoxan, Day 0) of the same compound?
Answer: 145 mm3

Question: And the “Mean Tumor size” value ([6]; 50 mpk Cytoxan, Day 4)?
Answer: 198 mm3

Question: What about the “Mean Tumor size” value ([6]; 50 mpk Cytoxan, Day 7) of the same compound?
Answer: 287 mm3

Question: And the “Mean Tumor size” value ([6]; 50 mpk Cytoxan, Day 11)?
Answer: 614 mm3

Question: What about the “Mean Tumor size” value ([6]; 50 mpk Cytoxan, Day 14) of the same compound?
Answer: 908 mm3

Question: And the “Mean Tumor size” value ([6]; 100 mpk Cytoxan, Day 0)?
Answer: 149 mm3

Question: What about the “Mean Tumor size” value ([6]; 100 mpk Cytoxan, Day 4) of the same compound?
Answer: 132 mm3

Question: What about the “Mean Tumor size” value ([6]; 100 mpk Cytoxan, Day 7) of the same compound?
Answer: 193 mm3

Question: What about the “Mean Tumor size” value ([6]; 100 mpk Cytoxan, Day 11) of the same compound?
Answer: 218 mm3

Question: And the “Mean Tumor size” value ([6]; 100 mpk Cytoxan, Day 14)?
Answer: 285 mm3

Question: With Cl.Nc1ccn(C2OC(CO)C(O)C2(F)F)c(=O)n1 (stereo not drawn) [Gemzar, gemcitabine, reference compound] as the compound, how does the “Tumor Average Size” value ([2]; 100 mpk Gemzar, Day 0) read?
Answer: 77 mm^3

Question: And the “Tumor Average Size” value ([2]; 100 mpk Gemzar, Day 4)?
Answer: 86 mm^3

Question: What about the “Tumor Average Size” value ([2]; 100 mpk Gemzar, Day 7) of the same compound?
Answer: 98 mm^3

Question: What about the “Tumor Average Size” value ([2]; 100 mpk Gemzar, Day 11) of the same compound?
Answer: 105 mm^3

Question: What about the “Tumor Average Size” value ([2]; 100 mpk Gemzar, Day 14) of the same compound?
Answer: 119 mm^3

Question: What about the “Tumor Average Size” value ([2]; 100 mpk Gemzar, Day 18) of the same compound?
Answer: 148 mm^3

Question: What about the “Tumor Average Size” value ([2]; 100 mpk Gemzar, Day 21) of the same compound?
Answer: 166 mm^3

Question: What about the “Tumor Average Size” value ([2]; 100 mpk Gemzar, Day 26) of the same compound?
Answer: 249 mm^3

Question: And the “Tumor Average Size” value ([2]; 100 mpk Gemzar, Day 29)?
Answer: 284 mm^3

Question: What about the “Tumor Average Size” value ([2]; 100 mpk Gemzar, Day 33) of the same compound?
Answer: 324 mm^3

Question: And the “Tumor Average Size” value ([2]; 100 mpk Gemzar, Day 36)?
Answer: 368 mm^3
